Laboratory results reported in publication PMC3251925 (Bioorganic & medicinal chemistry, 2011).
Read-outs that look alike come from different tables or passages of the source.

Columns and labels:
[1] = molecular target: T1, Edema Factor (EF) (Bacillus anthracis, UniProt P40136); test: cell-based; type: cell-based
[2] = system: enterotoxigenic E.coli (ETEC); conditions: cited from earlier work
[3] = in vivo; cited from earlier work
[4] = system: RAW 264.7 cells; conditions: added alone, at the highest dose tested
[5] = system: human GADD45α gene-GFP reporter in TK6 cells (GenM-T01, GenM-C01)
[6] = system: enterotoxigenic E.coli (ETEC); type: in vivo; conditions: assuming 5 ml serum/mouse
[7] = molecular target: T1, Edema Factor (EF); conditions: read-out: IC50, inhibition of cAMP production induced by edema toxin; cited from earlier work
[8] = system: tester strain TAMix
[9] = system: cholera toxin; conditions: cited from earlier work

T1 sequence (P40136 whole entry, looked up): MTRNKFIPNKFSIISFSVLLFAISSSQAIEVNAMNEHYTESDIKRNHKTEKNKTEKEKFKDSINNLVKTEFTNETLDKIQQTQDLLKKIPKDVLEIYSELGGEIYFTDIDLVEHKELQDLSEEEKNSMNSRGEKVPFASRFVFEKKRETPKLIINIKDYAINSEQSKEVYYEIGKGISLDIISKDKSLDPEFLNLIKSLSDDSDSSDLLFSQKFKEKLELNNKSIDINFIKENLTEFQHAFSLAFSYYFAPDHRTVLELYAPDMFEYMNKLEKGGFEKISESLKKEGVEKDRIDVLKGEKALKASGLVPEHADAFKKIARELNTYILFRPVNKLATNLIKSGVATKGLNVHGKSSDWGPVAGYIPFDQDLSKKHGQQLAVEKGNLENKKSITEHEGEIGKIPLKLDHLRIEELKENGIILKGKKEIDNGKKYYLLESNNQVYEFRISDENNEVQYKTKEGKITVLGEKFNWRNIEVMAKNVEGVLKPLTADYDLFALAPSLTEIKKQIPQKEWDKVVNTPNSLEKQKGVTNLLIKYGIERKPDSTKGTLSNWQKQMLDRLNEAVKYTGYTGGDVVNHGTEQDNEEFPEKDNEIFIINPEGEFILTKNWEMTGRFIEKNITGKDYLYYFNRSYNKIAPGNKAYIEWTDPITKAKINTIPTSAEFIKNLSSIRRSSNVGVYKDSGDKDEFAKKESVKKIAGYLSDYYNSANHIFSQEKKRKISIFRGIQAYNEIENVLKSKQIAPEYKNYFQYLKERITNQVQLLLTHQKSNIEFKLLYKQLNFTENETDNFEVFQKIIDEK

Molecule: 3-[(Biphenyl-3-carbonyl)-amino]-benzoic acid [Compound 2]
- IC50 ([1]; read-out: IC50 (μM) Assay 1): 19 µM

Molecule: O=C(O)c1cccc(NC(=O)c2cccc3c2C(=O)c2ccccc2-3)c1 [Compound 1, 3-(9-oxo-9H-fluorene-1-carboxamido)benzoic acid]
- Effective dose to reduce diarrhea in mice (from ETEC) ([2]; intraperitoneally or by gavage, per mouse): 7.5 to 15 µg
- Diarrhea caused by ETEC ([2]; mouse, oral gavage dose of 15 μg/mouse): reduced diarrhea
- Levels of bacteria in the colons of infected and treated mice ([2]; versus mice that did not receive the compound): much lower
- Obvious toxic effect in mouse studies [3]: no obvious toxic effect
- Obvious toxicity to cultured cells [4]: no obvious toxic effect
- IC50 [1]: 1.64 to 12.3 µM
- Concentration determined to be cytotoxic [5]: 62.5 µg/mL
- Concentration with genotoxic activity (positive response) [5]: 62.5 µg/mL
- Active dose in mice expressed as concentration [6]: about 3 μg/ml
- IC50 [7]: 2 to 9 µM
- Mutagenicity [8]: non-mutagenic
- Number of revertants [8]: doubling
- Inhibition of cholera toxin [9]: inhibits cholera toxin

Molecule: O=C(Nc1ccccc1)c1cccc2c1C(=O)c1ccccc1-2 [Compound 4, 9-oxo-N-phenyl-9H-fluorene-1-carboxamide]
- EF inhibitory activity, in words [1]: relatively inactive

Molecule: Nc1ccc(NC(=O)c2cccc3c2C(=O)c2ccccc2-3)c(C(=O)O)c1 [Compound 6, 5-Amino-2-(9-oxo-9H-fluorene-1-carboxamido)benzoic acid]
- EF inhibitory activity, in words [1]: inactive

Molecule: O=C(O)c1cc(NC(=O)c2cccc3c2C(=O)c2ccccc2-3)ccc1O [Compound 9, 2-Hydroxy-5-(9-oxo-9H-fluorene-1-carboxamido)benzoic acid]
- EF inhibitory activity, in words [1]: inactive

Molecule: Nc1cc(NC(=O)c2cccc3c2C(=O)c2ccccc2-3)cc(C(=O)O)c1 [Compound 10, 3-amino-5-(9-oxo-9H-fluorene-1-carboxamido)benzoic acid]
- Obvious toxicity to cultured cells [4]: neither caused obvious toxicity
- IC50 [1]: 1.3 µM

Molecule: COC(=O)c1cc(NC(=O)c2cccc3c2C(=O)c2ccccc2-3)ccc1O [Compound 14, Methyl 2-hydroxy-5-(9-oxo-9H-fluorene-1-carboxamido)benzoate]
- EF inhibitory activity, in words [1]: completely inactive
- IC50 [1]: 249 µM

Molecule: CN(C)c1cccc(NC(=O)c2cccc3c2C(=O)c2ccccc2-3)c1 [Compound 19, N-(3-(dimethylamino)phenyl)-9-oxo-9H-fluorene-1-carboxamide]
- Obvious toxicity to cultured cells [4]: neither caused obvious toxicity
